Assay results published in article PMC2914800 (Biochemistry, 2010).

How the values were obtained:
HasAp [1] = biological target: HasAp (Pseudomonas aeruginosa, UniProt G3XD33); test: stopped-flow UV-vis kinetics at […] °C; format: binding
HasAp [2] = biological target: T1, HasAp (Pseudomonas aeruginosa, UniProt G3XD33, H32A); test: stopped-flow UV-vis kinetics at […] °C; format: binding
T1 sequence (G3XD33 1-184 H32A): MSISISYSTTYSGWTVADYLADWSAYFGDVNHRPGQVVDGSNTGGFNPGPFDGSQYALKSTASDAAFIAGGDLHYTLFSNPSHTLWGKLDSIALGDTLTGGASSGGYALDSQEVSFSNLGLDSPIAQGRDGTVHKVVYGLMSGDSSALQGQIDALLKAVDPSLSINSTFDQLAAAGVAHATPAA

SMILES: C=CC1=C(C)C2=Cc3c(C=C)c(C)c4[n]3[Fe]([Cl])[n]3c(c(C)c(CCC(=O)O)c3=CC3=NC(=C4)C(C)=C3CCC(=O)O)=CC1=N2 [hemin]
- Kd (HasAp [1]): 35 µM
- Kd (HasAp [2]): 61 µM
